Assay results taken from ChEMBL document CHEMBL6134849, “A Water-Soluble Aggregation-Induced Emission Photosensitizer with Intrinsic Antibacterial Activity as an Antiplanktonic and Antibiofilm Therapeutic Agent” (J Med Chem, 2025).
The source made the active and inactive calls.

Experiments:
[1] = Induction of type-I ROS generation in PBS assessed as increase in singlet oxygen by measuring increase in SOSG fluorescence intensity at 10 uM irradiated with 660 nm 60 mW/cm2 light for 15 mins by SOSG probe based plate reader analysis; format: functional
[2] = Induction of type-I ROS generation in PBS assessed as increase in hydroxyl radical by measuring increase in HPF fluorescence intensity at 10 uM irradiated with 660 nm 60 mW/cm2 light for 15 mins by HPF probe based plate reader analysis; format: functional
[3] = system: Lipoteichoic acid; assay: Displacement of BODIPY-TR Cadaverine from Staphylococcus aureus lipoteichoic acid (LTA) assessed as increase in fluorescence intensity at 10 uM incubated for 30 mins by fluorescence based plate reader analysis
[4] = Induction of type-II ROS generation in PBS assessed as increase in nonspecific ROS by measuring increase in DHR123 fluorescence intensity at 10 uM irradiated with 660 nm 60 mW/cm2 light for 15 mins by DHR123 probe based plate reader analysis; format: functional
[5] = Induction of […] ROS generation in PBS assessed as increase in hydroxyl radical by measuring increase in HPF fluorescence intensity at 10 uM irradiated with 660 nm 60 mW/cm2 light for 15 mins by HPF probe based plate reader analysis; format: functional
[6] = system: Lipopolysaccharide (LPS); assay: Displacement of BODIPY-TR Cadaverine from Pseudomonas aeruginosa lipopolysaccharide (LPS) assessed as increase in fluorescence intensity at 10 uM incubated for 30 mins by fluorescence based plate reader analysis
[7] = Induction of type-I ROS generation in PBS assessed as increase in nonspecific ROS by measuring increase in DHR123 fluorescence intensity at 10 uM irradiated with 660 nm 60 mW/cm2 light for 15 mins by DHR123 probe based plate reader analysis; format: functional
[8] = Induction of type-II ROS generation in PBS assessed as increase in singlet oxygen by measuring increase in SOSG fluorescence intensity at 10 uM irradiated with 660 nm 60 mW/cm2 light for 15 mins by SOSG probe based plate reader analysis; format: functional

Measured: Activity

CC[n+]1c(/C=C/c2ccc(-c3ccc(N(c4ccc(OCCC[N+](C)(C)C)cc4)c4ccc(OCCC[N+](C)(C)C)cc4)cc3)s2)sc2ccccc21
active: [1] | [2] | [3] | [4] | [5] | [6] | [7] | [8]
